Laboratory results from article PMC11943675, “Studies of Piper auritum Kuntz’s Mutagenic and Antimutagenic Properties Using the Ames Test” (Metabolites, 2025).
“And” between values parts separate entries of the source, which are not always exact repeats. Equal entries are not always repeated. Where two headings read alike, the source gives them in different places.

What was measured:
S. typhimurium TA98 [1] = test: Ames test (Salmonella/microsome mutagenicity assay), strain TA98; format: cell-based, Salmonella typhimurium
Method: (§1) The study was carried out according to the indications of Maron and Ames, as well as with the recommendations expressed by the OCDE with respect to this assay. The Salmonella typhimurium strains used were TA98, TA100, TA102, TA1535, and TA1537.
(§2) In this case, the concentrations used were 10, 50, 100, 500, and 1000 µg/plate. Both studies were performed without and with the inclusion of the S9 fraction. In the last case, the S9 fraction was mixed with 5 mM glucose-6 phosphate, 4 mM NADPH, 8 mM MgCl2, and phosphate buffer at pH 7.4. The reaction mixture with or without S9 was placed in Petri dishes containing minimum agar plus glucose and Vogel–Bonner salts and left at 37 °C for 48 h. Finally, the number of revertant colonies (His^+) in each treatment was counted. Importantly, we used different mutagens as positive controls depending on the strain.
(§3) The toxicity of the tested agents was assessed by observing background bacterial growth on minimal agar plates due to traces of histidine in the medium.

S. typhimurium TA100 = test: Ames test (Salmonella/microsome mutagenicity assay), strain TA100; format: cell-based, Salmonella typhimurium
Method: as §1, §2, §3

S. typhimurium TA1537 = test: Ames test (Salmonella/microsome mutagenicity assay), strain TA1537; format: cell-based, Salmonella typhimurium
Method: as §1, §2, §3

S. typhimurium TA102 = test: Ames test (Salmonella/microsome mutagenicity assay), strain TA102; format: cell-based, Salmonella typhimurium
Method: as §1, §2, §3

S. typhimurium TA1535 = format: cell-based, Salmonella typhimurium; settings: positive mutagen
Method: as §1, §2, §3

rat hepatocytes = settings: cited from earlier work
human CYP1A1 [2] = molecular target: T1, human CYP1A1 (Homo sapiens, UniProt P04798); settings: nonlinear regression and Lineweaver–Burk plots
T1 sequence (P04798 1-512): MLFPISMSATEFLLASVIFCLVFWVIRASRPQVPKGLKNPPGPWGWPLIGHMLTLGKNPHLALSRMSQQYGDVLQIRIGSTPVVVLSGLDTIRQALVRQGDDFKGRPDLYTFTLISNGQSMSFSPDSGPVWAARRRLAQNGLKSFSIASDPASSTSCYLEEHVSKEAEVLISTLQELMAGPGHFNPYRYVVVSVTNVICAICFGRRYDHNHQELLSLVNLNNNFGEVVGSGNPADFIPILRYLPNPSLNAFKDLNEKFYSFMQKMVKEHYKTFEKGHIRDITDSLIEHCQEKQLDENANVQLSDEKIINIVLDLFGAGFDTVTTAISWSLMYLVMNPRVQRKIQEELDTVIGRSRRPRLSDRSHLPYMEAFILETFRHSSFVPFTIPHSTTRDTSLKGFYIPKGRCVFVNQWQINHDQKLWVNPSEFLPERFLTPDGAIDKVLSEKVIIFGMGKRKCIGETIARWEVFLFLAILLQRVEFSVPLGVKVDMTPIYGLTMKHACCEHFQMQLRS
Method: (§4) The protein content was estimated via the Bradford assay.
(§5) To determine the type of inhibition, an incubation volume of 200 μL containing human CYP1A1 bacterial membranes (80 μg) and 0.5 mM NADPH in buffer pH 7.6 (50 mM Tris–HCl and 25 mM MgCl2) was used.

Salmonella typhimurium = settings: cited from earlier work
[3] = test system: Salmonella typhimurium strains TA98, TA100, TA102, TA1535, and TA1537; test: Ames test, overall verdict over the five strains; format: cell-based
Method: as §1, §2, §3

human CYP1A1 [4] = molecular target: T1, human CYP1A1; test: biochemical
Method: as §4, §5

S. typhimurium TA98 [5] = settings: strain TA98; cited from earlier work
[6] = test system: strain TA98 of S. typhimurium; settings: cited from earlier work
mouse bone marrow = settings: cited from earlier work

SMILES: O=[N+]([O-])c1ccc2c(c1)Cc1ccccc1-2 [2-nitrofluorene, reference compound]
- His^+ Revertants (S. typhimurium TA98 [1]; positive mutagen, TA98 (−S9), 5 µg): 2419 ± 169 ^1 and 2070 ± 44 ^1
- His^+ Revertants (S. typhimurium TA100; positive mutagen, TA100 (−S9), 5 µg): 1909 ± 428 ^1

SMILES: Nc1ccc2cc3ccccc3cc2c1 [aminoanthracene, 2-aminoanthracene, reference compound]
- His^+ Revertants (S. typhimurium TA1537; positive mutagen, TA1537 (+S9), 2 µg): 120 ± 12 ^4
- His^+ Revertants (S. typhimurium TA102; positive mutagen, TA102 (+S9), 5 µg): 2080 ± 27 ^7
- His^+ Revertants (S. typhimurium TA1535; TA1535 (+S9), 2 µg): 371 ± 20 ^4

SMILES: CC1=NN(c2ccc([N+](=O)[O-])cc2)C(=O)C1[N+](=O)[O-] (stereo not drawn) [picrolonic acid, reference compound]
- His^+ Revertants (S. typhimurium TA1537; positive mutagen, TA1537 (−S9), 100 µg): 63 ± 2 ^5

SMILES: C=CCc1ccc2c(c1)OCO2 [safrole, 5-(2-propenyl)-1,3-benzodioxone]
- DNA adducts and chromosomal aberrations (rat hepatocytes): induction of DNA adducts and chromosomal aberrations
- gene mutations (rat hepatocytes): no gene mutations
- type of inhibition (human CYP1A1 [2]): competitive inhibition
- mutagenicity, Ames test (Salmonella typhimurium): negative
- His^+ Revertants (S. typhimurium TA1537; TA1537 (+S9), 10 μg/plate): 12 ± 3
- His^+ Revertants (S. typhimurium TA1537; TA1537 (+S9), 50 μg/plate): 10 ± 3
- His^+ Revertants (S. typhimurium TA1537; TA1537 (+S9), 100 μg/plate): 10 ± 1
- His^+ Revertants (S. typhimurium TA1537; TA1537 (+S9), 500 μg/plate): 11 ± 4
- His^+ Revertants (S. typhimurium TA1537; TA1537 (+S9), 1000 μg/plate): 9 ± 3
- His^+ Revertants (S. typhimurium TA1537; TA1537 (−S9), 10 μg/plate): 10 ± 3
- His^+ Revertants (S. typhimurium TA1537; TA1537 (−S9), 50 μg/plate): 14 ± 4
- His^+ Revertants (S. typhimurium TA1537; TA1537 (−S9), 100 μg/plate): 10 ± 1
- His^+ Revertants (S. typhimurium TA1537; TA1537 (−S9), 500 μg/plate): 12 ± 3
- His^+ Revertants (S. typhimurium TA1537; TA1537 (−S9), 1000 μg/plate): 11 ± 4
- His^+ Revertants (S. typhimurium TA98 [1]; TA98 (+S9), 10 μg/plate): 20 ± 2
- His^+ Revertants (S. typhimurium TA98 [1]; TA98 (+S9), 50 μg/plate): 34 ± 8
- His^+ Revertants (S. typhimurium TA98 [1]; TA98 (+S9), 100 μg/plate): 38 ± 9
- His^+ Revertants (S. typhimurium TA98 [1]; TA98 (+S9), 500 μg/plate): 26 ± 9
- His^+ Revertants (S. typhimurium TA98 [1]; TA98 (+S9), 1000 μg/plate): 36 ± 7
- His^+ Revertants (S. typhimurium TA98 [1]; TA98 (−S9), 10 μg/plate): 19 ± 3
- His^+ Revertants (S. typhimurium TA98 [1]; TA98 (−S9), 50 μg/plate): 22 ± 7
- His^+ Revertants (S. typhimurium TA98 [1]; TA98 (−S9), 100 μg/plate): 27 ± 4
- His^+ Revertants (S. typhimurium TA98 [1]; TA98 (−S9), 500 μg/plate): 18 ± 3
- His^+ Revertants (S. typhimurium TA98 [1]; TA98 (−S9), 1000 μg/plate): 22 ± 9
- His^+ Revertants (S. typhimurium TA100; TA100 (+S9), 10 μg/plate): 97 ± 18
- His^+ Revertants (S. typhimurium TA100; TA100 (+S9), 50 μg/plate): 108 ± 18
- His^+ Revertants (S. typhimurium TA100; TA100 (+S9), 100 μg/plate): 105 ± 9
- His^+ Revertants (S. typhimurium TA100; TA100 (+S9), 500 μg/plate): 108 ± 9
- His^+ Revertants (S. typhimurium TA100; TA100 (+S9), 1000 μg/plate): 102 ± 9
- His^+ Revertants (S. typhimurium TA100; TA100 (−S9), 10 μg/plate): 110 ± 16
- His^+ Revertants (S. typhimurium TA100; TA100 (−S9), 50 μg/plate): 120 ± 17
- His^+ Revertants (S. typhimurium TA100; TA100 (−S9), 100 μg/plate): 107 ± 10
- His^+ Revertants (S. typhimurium TA100; TA100 (−S9), 500 μg/plate): 100 ± 17
- His^+ Revertants (S. typhimurium TA100; TA100 (−S9), 1000 μg/plate): 112 ± 6
- toxicity (background bacterial growth) ([3]; tested concentrations): absence of toxicity
- mutagenic potential ([3]; with and without S9): absence of a mutagenic effect
- Ki (human CYP1A1 [4]): 380 nM
- mutagenicity (S. typhimurium TA98 [5]): no mutagenicity
- His^+ Revertants (S. typhimurium TA102; TA102 (+S9), 10 μg/plate): 573 ± 6
- His^+ Revertants (S. typhimurium TA102; TA102 (+S9), 50 μg/plate): 558 ± 14
- His^+ Revertants (S. typhimurium TA102; TA102 (+S9), 100 μg/plate): 520 ± 10
- His^+ Revertants (S. typhimurium TA102; TA102 (+S9), 500 μg/plate): 477 ± 17
- His^+ Revertants (S. typhimurium TA102; TA102 (+S9), 1000 μg/plate): 504 ± 12
- His^+ Revertants (S. typhimurium TA102; TA102 (−S9), 10 μg/plate): 502 ± 4
- His^+ Revertants (S. typhimurium TA102; TA102 (−S9), 50 μg/plate): 489 ± 19
- His^+ Revertants (S. typhimurium TA102; TA102 (−S9), 100 μg/plate): 484 ± 13
- His^+ Revertants (S. typhimurium TA102; TA102 (−S9), 500 μg/plate): 451 ± 18
- His^+ Revertants (S. typhimurium TA102; TA102 (−S9), 1000 μg/plate): 512 ± 40
- antimutagenic potential against heterocyclic aromatic amines [6]: strong antimutagenic potential
- mutagenicity, mouse bone marrow micronuclei assay (mouse bone marrow): negative

SMILES: [N-]=[N+]=[N-].[Na+] [sodium azide]
- His^+ Revertants (S. typhimurium TA1535; TA1535 (−S9), 1 µg): 481 ± 28 ^3
